The structures appear in SMILES notation.

In data set [1] the target is T1, 5-HT2A receptor (Homo sapiens, UniProt P28223).
T1 construct: host or cells: unnamed cell lines
Put plainly: Calcium mobilization assay, antagonist format, 5-HT2A. Format: cell-based. To be noted: @100 nM; agonist challenge at EC80. The protocol:
(§1) Protocol—in vitro testing at select 5-hydroxytryptamine (5-HT; serotonin) receptors was conducted.
(§2) • 1. Cell lines were expanded from freezer stocks according to standard procedures. • 2. Cells were seeded in a total volume of 20 μL into black-walled, clear-bottom, Poly-D-lysine coated 384-well microplates and incubated at 37° C. for the appropriate time prior to testing.
(§3) • 1. Assays were performed in 1× Dye Loading Buffer consisting of 1× Dye, 1× Additive A and • 2.5 mM Probenecid in HBSS/20 mM Hepes. Probenicid was prepared fresh. • 2. Cells were loaded with dye prior to testing. Media was aspirated from cells and replaced with 20 μL Dye Loading Buffer. • 3. Cells were incubated for 30-60 minutes at 37° C.
(§4) • 1. For antagonist determination, cells were pre-incubated with sample followed by agonist challenge at the EC80 concentration. • 2. Intermediate dilution of sample stocks was performed to generate 3× sample in assay buffer. • 3. After dye loading, cells were removed from the incubator and 10 μL 3× sample was added. Cells were incubated for 30 minutes at room temperature in the dark to equilibrate plate temperature. Vehicle concentration was 1%. • 4. Compound antagonist activity was measured on a FLIPR Tetra (MDS). Calcium mobilization was monitored for 2 minutes and 10 μL EC80 agonist in HBSS/20 mM Hepes was added to the cells 5 seconds into the assay.
(§5) • 1. Compound activity was analyzed using CBIS data analysis suite (ChemInnovation, CA). • 2. For agonist mode assays, percentage activity is calculated using the following formula: % Activity=100%×(mean RFU of test sample−mean RFU of vehicle control)/(mean MAX RFU control ligand −mean RFU of vehicle control). • 3. For positive allosteric mode assays, percentage modulation was calculated using the following formula: % Modulation=100%×((mean RFU of test sample−mean RFU of EC20 control)/(mean RFU of MAX control ligand −mean RFU of EC20 control)). • 4. For antagonist and negative allosteric modulation mode assays, percentage inhibition is calculated using the following formula: % Inhibition=100%×(1−(mean RFU of test sample−mean RFU of vehicle control)/(mean RFU of EC80 control−mean RFU of vehicle control)).
Compounds were evaluated as 5-HT2A antagonists at 100 nM (one hundred nanomolar), or may be evaluated at a higher concentration. For research comparative purposes, a literature compound—(R)-1-(5-methoxy-1H-indol-1-yl)-N,N-dimethylpropan-2-amine (AAZ-A-154) (Cell 2021, 184, 2779-2792.e18)—was included in the screening assays. Additionally, 5-hydroxytryptamine/serotonin (5-HT) was included in the screening assay as a positive control agonist, and Altanserin HCl was included as a 5-HT2A antagonist positive control.
A general note: Calcium assays in cells follow changes in intracellular calcium, usually with a dye or a luminescent sensor.

The target in another data set is T2, 5-HT2B receptor (Homo sapiens, UniProt P41595).
T2 construct: host or cells: unnamed cell lines
T2 sequence (P41595 whole entry): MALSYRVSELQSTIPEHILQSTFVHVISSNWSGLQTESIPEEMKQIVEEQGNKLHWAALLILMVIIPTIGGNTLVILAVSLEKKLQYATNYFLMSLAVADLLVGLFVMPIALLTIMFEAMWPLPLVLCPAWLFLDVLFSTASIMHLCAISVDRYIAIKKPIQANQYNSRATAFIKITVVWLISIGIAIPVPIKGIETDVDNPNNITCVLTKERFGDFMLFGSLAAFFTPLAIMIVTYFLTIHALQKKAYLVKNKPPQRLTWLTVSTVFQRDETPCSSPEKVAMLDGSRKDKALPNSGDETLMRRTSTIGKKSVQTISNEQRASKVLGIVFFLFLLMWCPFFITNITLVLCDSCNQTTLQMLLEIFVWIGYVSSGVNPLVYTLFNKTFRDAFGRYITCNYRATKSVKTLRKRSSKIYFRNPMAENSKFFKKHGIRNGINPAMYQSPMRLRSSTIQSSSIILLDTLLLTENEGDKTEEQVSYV
Put plainly: Calcium mobilization assay, agonist format, 5-HT2B. Format: cell-based. To be noted: % activity relative to control ligand, read-out: 5-HT2B agonist efficacy @5 µM. The protocol:
as §1, §2, §3
(§6) • 1. For agonist determination, cells were incubated with sample to induce response. • 2. After dye loading, cells were removed from the incubator and 10 μL HBSS/20 mM Hepes was added. 3× vehicle was included in the buffer when performing agonist dose curves to define the EC80 for subsequent antagonist assays. Cells were incubated for 30 minutes at room temperature in the dark to equilibrate plate temperature. • 3. Intermediate dilution of sample stocks was performed to generate 4× sample in assay buffer. • 4. Compound agonist activity was measured on a FLIPR Tetra (MDS). Calcium mobilization was monitored for 2 minutes and 10 μL 4× sample in HBSS/20 mM Hepes was added to the cells 5 seconds into the assay.
as §5

In data set [2] the target is T1, 5-HT2A receptor. Put plainly: Calcium mobilization assay, agonist format, 5-HT2A. Format: cell-based. The note with it: % activity relative to control ligand, read-out: 5-HT2A agonist efficacy @10 µM. Here is the method: as §1, §2, §3, §6, §5
In the next data set the target is T3, 5-HT2C receptor (Homo sapiens, UniProt P28335).
T3 construct: host or cells: unnamed cell lines
T3 sequence (P28335 33-458): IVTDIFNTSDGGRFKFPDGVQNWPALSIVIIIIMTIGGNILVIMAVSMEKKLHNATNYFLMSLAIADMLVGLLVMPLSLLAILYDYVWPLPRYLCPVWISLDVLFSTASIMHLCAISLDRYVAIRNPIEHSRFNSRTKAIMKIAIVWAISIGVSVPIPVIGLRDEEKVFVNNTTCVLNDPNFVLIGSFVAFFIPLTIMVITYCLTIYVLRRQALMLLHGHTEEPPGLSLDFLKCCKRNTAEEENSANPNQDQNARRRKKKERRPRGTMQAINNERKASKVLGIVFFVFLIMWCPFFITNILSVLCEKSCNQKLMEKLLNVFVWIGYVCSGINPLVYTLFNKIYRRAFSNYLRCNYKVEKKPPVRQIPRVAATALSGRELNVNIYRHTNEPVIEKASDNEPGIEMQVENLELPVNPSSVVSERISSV
The experiment in a line: Calcium mobilization assay, antagonist format, 5-HT2C. Format: cell-based. To be noted: for inhibition at 10 µM: agonist challenge at EC80; for antagonism of the 5-HT2C receptor: 10 μM (ten micromolar). Here is the method:
as §1, §2, §3, §4, §5
[…] For research comparative purposes, a literature compound—(R)-1-(5-methoxy-1H-indol-1-yl)-N,N-dimethylpropan-2-amine (AAZ-A-154) (Cell 2021, 184, 2779-2792.e18)—was included in the screening assays. Additionally, 5-hydroxytryptamine/serotonin (5-HT) was included in the screening assay as a positive control agonist, and SB242084 was used in the screening assay as a literature 5-HT2C antagonist positive control. […] Compounds 2, 3 and 93 each achieved greater than 75% antagonism of the 5-HT2C receptor, with compounds 3 and 93 achieving approximately 98% and 97% antagonism, respectively.

Data set [3] can be described thus: Metabolic stability in human liver microsomes. Format: in vitro ADME. The note with it: for half-life at 1 μM / microsomal CLint at 1 μM / CLint scaled at 1 μM: liver microsomes (pooled); for half-life at 1 μM: human liver microsomes 0.5 mg/mL, test compound 1.0 μM, 37° C., NADPH; for microsomal CLint at 1 μM: intrinsic clearance = 0.693/T1/2/mg microsome protein per mL, read-out: CLint(mic); for CLint scaled at 1 μM: human, scaled from CLint(mic) with 45 mg microsomal protein/g liver and 20 g liver/kg. Here is the method: The test compound at 1.0 μM in singlet, or positive controls including Testosterone (CYP3A4 substrate), Propafenone (CYP2D6 substrate) or Diclofenac (CYP2C9 substrate) was incubated with the liver microsomes (Corning, Xenotech, or other credible vendor, pooled from multiple donors) at 0.5 mg/mL, respectively. The mixture was warmed up at 37° C. for 10 minutes and the reactions were initiated by the addition of a NADPH regenerating system (˜1.0 mM). The test compound incubated with the liver microsomes at 37° C. without the NADPH regenerating system served as the negative control reaction.
The reaction samples were removed at multiple time points (such as 0, 5, 15, 30, 45 and 60 minutes) and the sample without NADPH (NCF) was removed at 60 minutes. All the samples were immediately mixed with cold acetonitrile containing internal standard (IS) to stop the reaction.
Samples were analyzed by LC/MS/MS and the disappearance of test compound were assessed base on peak area ratios of analyte/IS (no standard curve). The microsomal intrinsic clearance and T1/2 values were calculated using the following equation: […]
The microsomal intrinsic clearance and T1/2 values were calculated using the following equation: […]
In these experiments the comparator compound was a suitable reference standard. In one embodiment the comparator compound was (R)-1-(5-methoxy-1H-indol-1-yl)-N,N-dimethylpropan-2-amine.
A general note: Microsomes from liver hold many membrane-bound enzymes, among them those of drug oxidation.

T1 sequence (P28223 whole entry): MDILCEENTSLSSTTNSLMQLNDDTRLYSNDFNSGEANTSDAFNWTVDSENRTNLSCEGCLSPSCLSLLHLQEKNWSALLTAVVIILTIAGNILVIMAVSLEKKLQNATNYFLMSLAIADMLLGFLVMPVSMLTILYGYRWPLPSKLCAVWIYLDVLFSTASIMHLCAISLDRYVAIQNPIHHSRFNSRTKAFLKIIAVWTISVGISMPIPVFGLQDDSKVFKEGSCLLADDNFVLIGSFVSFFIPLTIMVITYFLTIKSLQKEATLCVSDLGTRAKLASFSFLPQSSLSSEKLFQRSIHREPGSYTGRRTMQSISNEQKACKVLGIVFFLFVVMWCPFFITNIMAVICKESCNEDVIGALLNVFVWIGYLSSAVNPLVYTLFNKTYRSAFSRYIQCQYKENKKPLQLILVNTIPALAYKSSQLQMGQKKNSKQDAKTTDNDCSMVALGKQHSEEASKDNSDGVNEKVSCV

Consider `COc1ccn2c(CC(C)N(C)C)ncc2c1` (racemic) [Compound 92, (R/S)-1-(7-methoxyimidazo[1,5-a]pyridin-3-yl)-N,N-dimethylpropan-2-amine], for which the inhibition at 0.1 µM on 5-HT2A receptor [1] is 1.6%. Also, the activation at 5 µM on 5-HT2B receptor was determined as 2%. Moreover, the activation at 10 µM on 5-HT2A receptor [2] came out at 0.3%. Besides, on 5-HT2C receptor, the inhibition at 10 µM amounted to 7.2%.
Regarding `C[C@H](Cn1ccc2c3c(ccc21)OCCC3)N(C)C` [Compound 3, (R)-1-(8,9-dihydropyrano[3,2-e]indol-3(7H)-yl)-N,N-dimethylpropan-2-amine], the inhibition at 0.1 µM at 5-HT2A receptor [1] was -7.3%. Moreover, the activation at 5 µM at 5-HT2B receptor was determined as 1%. Besides, at 5-HT2A receptor [2], the activation at 10 µM came out at 9.7%. Moreover, at 5-HT2C receptor, the “antagonism of the 5-HT2C receptor” value was “approximately 98%” and the inhibition at 10 µM came to 98.1%.
As to `COc1ccc2c(ccn2C[C@@H](C)N(C)C)c1` [AAZ-A-154, (R)-1-(5-methoxy-1H-indol-1-yl)-N,N-dimethylpropan-2-amine, reference compound], at 5-HT2A receptor [1], the inhibition at 0.1 µM turned out to be 3.2%. Besides, in data set [3], the half-life at 1 μM was found to be 1.42 h and the intrinsic metabolic clearance (CLint scaled) at 1 μM amounted to 14.8 mL/min/kg. The microsomal CLint at 1 μM in data set [3] (human liver microsomes) came out at 16.4 µL/min/mg. At 5-HT2B receptor, the activation at 5 µM is -2.9%. The activation at 10 µM on 5-HT2A receptor [2] turned out to be 1%. Moreover, the inhibition at 10 µM at 5-HT2C receptor was determined as 35%.
In the case of `[2H]C([2H])([2H])[C@@]([2H])(N(C)C)C([2H])([2H])n1ccc2cc(OC)ccc21` [Compound 5, (2R)-1,1,1,2,3,3-hexadeuterio-3-(5-methoxyindol-1-yl)-N,N-dimethyl-propan-2-amine], the inhibition at 0.1 µM at 5-HT2A receptor [1] was -2.7%. For the same compound, the “difference in half-life and intrinsic clearance compared with reference compound (R)-1-(5-methoxy-1H-indol-1-yl)-N,N-dimethylpropan-2-amine” value in data set [3] (human liver microsomes, comment on Table 2) was “significant and beneficial differences in half-life and intrinsic clearance”. In data set [3], this compound registered a half-life at 1 μM of 1.59 h and a CLint scaled at 1 μM of 13.5 mL/min/kg. The microsomal CLint at 1 μM in data set [3] (human liver microsomes) amounted to 15 µL/min/mg. Moreover, the activation at 5 µM at 5-HT2B receptor came out at 3%. The activation at 10 µM at 5-HT2A receptor [2] was found to be 2%. On 5-HT2C receptor, the inhibition at 10 µM is 38.1%.
Consider `C[C@H](Cn1ccc2cc(S(F)(F)(F)(F)F)ccc21)N(C)C` [Compound 2, (2R)-N,N-dimethyl-1-[5-(pentafluoro-λ^6-sulfanyl)indol-l-yl]propan-2-amine], for which, at 5-HT2A receptor [1], the inhibition at 0.1 µM is -0.8%. Besides, the activation at 5 µM at 5-HT2B receptor was 6.4%. The activation at 10 µM at 5-HT2A receptor [2] came out at 4.4%. Moreover, the inhibition at 10 µM on 5-HT2C receptor amounted to 76.4%.
For `COc1ccn2c(CC(C)N(C)C)cnc2c1` (racemic) [Compound 91, (R/S)-1-(7-methoxyimidazo[1,2-a]pyridin-3-yl)-N,N-dimethylpropan-2-amine], in that order: -3.3%, 1%, 0.6% and 6.1%.
For `C[C@H](Cn1ccc2cc(S(=O)(=O)C3CC3)ccc21)N(C)C` [Compound 4, (2R)-1-(5-cyclopropylsulfonylindol-1-yl)-N,N-dimethyl-propan-2-amine], in that order: -9.1%, -0.6%, -1.5% and 6.2%.
For `C[C@H](Cn1ccc2cc(OC3CC3)ccc21)N(C)C` [Compound 1, (R)-1-(5-cyclopropoxy-1H-indol-1-yl)-N,N-dimethylpropan-2-amine], in that order: -13.2%, -0.7%, -1.4% and 20.7%.
For `CC(Cc1ncn2cc(F)ccc12)N(C)C` (racemic) [Compound 93, (R/S)-1-(6-fluoroimidazo[1,5-a]pyridin-1-yl)-N,N-dimethylpropan-2-amine], the inhibition at 0.1 µM on 5-HT2A receptor [1] is 5.7%. In addition, the activation at 5 µM at 5-HT2B receptor is 2.7%. For the same compound, the activation at 10 µM at 5-HT2A receptor [2] was 1.8%. At 5-HT2C receptor, the “antagonism of the 5-HT2C receptor” value is about 97% and the inhibition at 10 µM was 97.1%.

The term inhibition denotes the change of the read-out against control, counted positive when it falls. As a reminder, the half-life is the time needed for the level to fall by half in the phase considered. One may read the CLint scaled as the capacity of the preparation to metabolise the compound, expressed as a volume cleared per time. Lower therefore signals greater metabolic stability.

Values taken from patent publication US20260138948A1, “N-SUBSTITUTED INDOLES AS 5-HYDROXYTRYPTAMINE (5-HT) SEROTONIN RECEPTOR AGONISTS AND ANTAGONISTS” (Terran Biosciences Inc., priority 2021, published 2026).
